According to patent US4956294A, “Culture of Streptoverticillium synroense for producing an antibacterial” (Merck & Co., Inc., priority 1989, dated 1990):
In brackets after ≈: the same amount, converted by molar mass. Entries after “also recorded” stand apart in the source; their conditions may differ.

Experiments:
Sarcina lutea 1101 (934) = assay: Inhibition zone, agar plate; assay type: cell-based; conditions: Micrococcus luteus, 15λ, read-out: Inhibition Zone Diameter
[1] = system: Brucella bronchiseptica 965; assay: microbe, parasite or virus in culture; assay type: cell-based; conditions: Bordetella bronchiseptica, 965, read-out: Inhibition Zone Diameter
[2] = system: Salmonella gallinarum 1287; assay: Inhibition zone, agar plate; assay type: cell-based; conditions: Salmonella enterica, 15λ, read-out: Inhibition Zone Diameter
[3] = system: Vibrio percolans 1272 (8461); assay: Inhibition zone, agar plate; assay type: cell-based; conditions: Comamonas terrigena, 15λ, read-out: Inhibition Zone Diameter
[4] = system: Pseudomonas stutzeri 1231 (11607); assay: Inhibition zone, agar plate; assay type: cell-based; conditions: Stutzerimonas stutzeri, 15λ, read-out: Inhibition Zone Diameter
[5] = system: Klebsiella pneumoniae 1264; assay: Inhibition zone, agar plate; assay type: cell-based; conditions: 15λ, read-out: Inhibition Zone Diameter
Aerobacter aerogenes 835 = assay: Inhibition zone, agar plate; assay type: cell-based; conditions: Klebsiella aerogenes, 15λ, read-out: Inhibition Zone Diameter
[6] = system: Pseudomonas aeruginosa 2824; assay: Inhibition zone, agar plate; assay type: cell-based; conditions: 15λ, read-out: Inhibition Zone Diameter
[7] = system: Streptococcus faecium 2820; assay: Inhibition zone, agar plate; assay type: cell-based; conditions: Enterococcus faecium, 15λ, read-out: Inhibition Zone Diameter
[8] = system: Streptococcus agalactiae 2875; assay: Inhibition zone, agar plate; assay type: cell-based; conditions: 15λ, read-out: Inhibition Zone Diameter
Proteus mirabilis 3126 = assay: Inhibition zone, agar plate; assay type: cell-based
Aspergillus niger 442 = assay: Inhibition zone, agar plate; assay type: cell-based; conditions: 15λ, read-out: Inhibition Zone Diameter
Eubacterium limosum 3344 = assay: Anaerobic agar dilution, Wilkens-Chalgren agar; assay type: cell-based; conditions: inoculum 10^6 cfu/spot, 35° C., 48 hours
Description: (a) Wilkens-Chalgren agar was used instead of antagonist-free medium (Roche);
(b) The inoculum/spot was about 10^6 instead of about 10^4 ;
(c) The incubation period was for 48 hours, not 24 hours; and
(d) Incubations were performed under anaerobic conditions.

[9] = system: Clostridium perfringens NCCLS control strain 4418; assay: microbe, parasite or virus in culture; assay type: cell-based; conditions: 48 h
C. perfringens 3508 = assay: microbe, parasite or virus in culture; assay type: cell-based; conditions: Clostridium perfringens, 3508, 48 h
C. perfringens 3509 = assay: microbe, parasite or virus in culture; assay type: cell-based; conditions: Clostridium perfringens, 3509, 48 h
C. perfringens 3511 = assay: microbe, parasite or virus in culture; assay type: cell-based; conditions: Clostridium perfringens, 3511, 48 h
C. perfringens 3512 = assay: microbe, parasite or virus in culture; assay type: cell-based; conditions: Clostridium perfringens, 3512, 48 h
C. perfringens 3513 = assay: microbe, parasite or virus in culture; assay type: cell-based; conditions: Clostridium perfringens, 3513, 48 h
C. ramosum 4272 = assay: Anaerobic agar dilution, Wilkens-Chalgren agar; assay type: cell-based; conditions: Thomasclavelia ramosa, 4272, 48 h
[10] = system: C. difficile Clind^r 4273; assay: Anaerobic agar dilution, Wilkens-Chalgren agar; assay type: cell-based; conditions: Clostridioides difficile, 48 h
[11] = system: Bifidobacterium dentium Fox^r 4427; assay: Anaerobic agar dilution, Wilkens-Chalgren agar; assay type: cell-based; conditions: 48 h
[12] = system: B. fragilis Clind^r, Fox^r, Tet^r 4360; assay: Anaerobic agar dilution, Wilkens-Chalgren agar; assay type: cell-based; conditions: Bacteroides fragilis, 48 h
[13] = system: B. fragilis NCCLS control strain 4419; assay: Anaerobic agar dilution, Wilkens-Chalgren agar; assay type: cell-based; conditions: Bacteroides fragilis, 48 h
[14] = system: B. thetalotamicron Clind^r 4362; assay: Anaerobic agar dilution, Wilkens-Chalgren agar; assay type: cell-based; conditions: 48 h
[15] = system: Fusobacterium mortiferum Fox^r 3345; assay: Anaerobic agar dilution, Wilkens-Chalgren agar; assay type: cell-based; conditions: 48 h
E. coli 2891 = assay: Agar dilution, trypticase soy agar; conditions: Escherichia coli, 2891, 20 h
Prot. vulgaris 2829 [16] = assay: Agar dilution, trypticase soy agar; conditions: Proteus vulgaris, 2829, 20 h
Prot. morganii Sm^r 2833 = assay: Agar dilution, trypticase soy agar; conditions: Morganella morganii, 20 h
[17] = system: Ps. aeruginosa RPL11+ 3350; assay: Agar dilution, trypticase soy agar; conditions: Pseudomonas aeruginosa, 20 h
Ser. marcescens 2840 = assay: Agar dilution, trypticase soy agar; conditions: Serratia marcescens, 2840, 20 h
Sal. typhimurium 3860 = assay: Agar dilution, antagonist-free medium; conditions: Salmonella enterica, 20 h
Prot. vulgaris 2829 [18] = assay: Agar dilution, antagonist-free medium; conditions: Proteus vulgaris, 2829, 20 h
Ps. aeruginosa 4279 = assay: Agar dilution, antagonist-free medium; conditions: Pseudomonas aeruginosa, 4279, 20 h
[19] = system: Bordetella bronchiseptica (3771); assay: Protection and survival of infected mice; conditions: intraperitoneal
Pasteurella = assay: Combined therapy with erythromycin in infected mice; conditions: L-654,040 combined with erythromycin, Pasteurella infection

C[C@H](CNC(=O)[C@H]1N=C(c2cccc(O)c2O)O[C@@H]1C)C(=O)N[C@@H]1CCCN(O)C1=O [L-654,040, 2-(2,3-dihydroxyphenyl)-4,5-dihydro-N-[3-[(1-hydroxy-2-oxo-3(R)-piperidinyl)-amino]-2(R)-methyl-3-oxopropyl]-5R-methyl-4S-oxazolecarboxamide]
zone of inhibition at 500 µg/mL (Sarcina lutea 1101 (934); 0.5 mg/ml in distilled H2O): 12 mm
zone of inhibition at 2000 µg/mL (Sarcina lutea 1101 (934); 2 mg/ml in distilled H2O): 17 mm
zone of inhibition at 500 µg/mL [1]: 16 mm
zone of inhibition at 2000 µg/mL [1]: 24 mm
zone of inhibition at 500 µg/mL ([2]; 0.5 mg/ml in distilled H2O): 0 mm
zone of inhibition at 2000 µg/mL ([2]; 2 mg/ml in distilled H2O): 0 mm
zone of inhibition at 500 µg/mL ([3]; 0.5 mg/ml in distilled H2O): 18 mm
zone of inhibition at 2000 µg/mL ([3]; 2 mg/ml in distilled H2O): 25 mm
zone of inhibition at 500 µg/mL ([4]; 0.5 mg/ml in distilled H2O): 12 mm
zone of inhibition at 2000 µg/mL ([4]; 2 mg/ml in distilled H2O): 13 mm
zone of inhibition at 500 µg/mL ([5]; 0.5 mg/ml in distilled H2O): 0 mm
zone of inhibition at 2000 µg/mL ([5]; 2 mg/ml in distilled H2O): 0 mm
zone of inhibition at 500 µg/mL (Aerobacter aerogenes 835; 0.5 mg/ml in distilled H2O): 0 mm
zone of inhibition at 2000 µg/mL (Aerobacter aerogenes 835; 2 mg/ml in distilled H2O): 0 mm
zone of inhibition at 500 µg/mL ([6]; 0.5 mg/ml in distilled H2O): 0 mm
zone of inhibition at 2000 µg/mL ([6]; 2 mg/ml in distilled H2O): 0 mm
zone of inhibition at 500 µg/mL ([7]; 0.5 mg/ml in distilled H2O): 0 mm
zone of inhibition at 2000 µg/mL ([7]; 2 mg/ml in distilled H2O): 0 mm
zone of inhibition at 500 µg/mL ([8]; 0.5 mg/ml in distilled H2O): 12 mm
zone of inhibition at 2000 µg/mL ([8]; 2 mg/ml in distilled H2O): 13 mm
zone of inhibition at 500 µg/mL (Proteus mirabilis 3126; Proteus mirabilis, 3126, read-out: Inhibition Zone Diameter): 24 mm
zone of inhibition at 2000 µg/mL (Proteus mirabilis 3126; Proteus mirabilis, 3126, 2 mg/ml in distilled H2O, 15λ, read-out: Inhibition Zone Diameter): 25 mm
zone of inhibition at 500 µg/mL (Aspergillus niger 442; 0.5 mg/ml in distilled H2O): 0 mm
zone of inhibition at 2000 µg/mL (Aspergillus niger 442; 2 mg/ml in distilled H2O): 0 mm
MIC (Eubacterium limosum 3344): 128 µg/mL (≈ 295 µM)
MIC [9]: 64 µg/mL (≈ 147 µM)
MIC (C. perfringens 3508): 64 µg/mL (≈ 147 µM)
MIC (C. perfringens 3509): 64 µg/mL (≈ 147 µM)
MIC (C. perfringens 3511): 64 µg/mL (≈ 147 µM)
MIC (C. perfringens 3512): 64 µg/mL (≈ 147 µM)
MIC (C. perfringens 3513): 128 µg/mL (≈ 295 µM)
MIC (C. ramosum 4272): 64 µg/mL (≈ 147 µM)
MIC [10]: 128 µg/mL (≈ 295 µM)
MIC [11]: > 128 µg/mL
MIC [12]: > 128 µg/mL
MIC [13]: > 128 µg/mL
MIC [14]: > 128 µg/mL
MIC [15]: > 128 µg/mL
MIC (E. coli 2891): > 128 µg/mL
MIC (Prot. vulgaris 2829 [16]): > 128 µg/mL
MIC (Prot. morganii Sm^r 2833): > 128 µg/mL
MIC [17]: > 128 µg/mL
MIC (Ser. marcescens 2840): > 128 µg/mL
MIC (Sal. typhimurium 3860): > 256 µg/mL
MIC (Prot. vulgaris 2829 [18]): > 256 µg/mL
MIC (Ps. aeruginosa 4279): > 256 µg/mL
protection against infection [19]: did not protect
survival time ([19]; 160 mg/kg x 2, significant only in Pasteurella-infected animals): prolongation of survival time was observed; also recorded: did prolong the survival time
efficacy of combined therapy versus erythromycin alone (Pasteurella): slightly more effective than erythromycin alone but not to a degree considered to be synergistic
